From patent publication US10039753B2, “Imidazo[4,5-c]quinoline and imidazo[4,5-c][1,5]naphthyridine derivatives as LRRK2 inhibitors” (Pfizer Inc., priority 2015, dated 2018)

How the values were obtained:
[1] = target: T1, GST-tagged truncated LRRK2 (Homo sapiens, UniProt Q5S007); assay: LRRK2 Assay, Format 1 (Lantha Screen), WT; type: biochemical; details: Format 1, wild-type LRRK2; geometric mean of 2-4 determinations unless footnoted (a: ≥5 determinations; b: single determination; c: determined on trifluoroacetate salt)
T1 construct: GST-tagged truncated LRRK2 from Invitrogen (Cat # PV4874); GST; purchased Invitrogen PV4874
T1 sequence (Q5S007 970-2527 limits assumed): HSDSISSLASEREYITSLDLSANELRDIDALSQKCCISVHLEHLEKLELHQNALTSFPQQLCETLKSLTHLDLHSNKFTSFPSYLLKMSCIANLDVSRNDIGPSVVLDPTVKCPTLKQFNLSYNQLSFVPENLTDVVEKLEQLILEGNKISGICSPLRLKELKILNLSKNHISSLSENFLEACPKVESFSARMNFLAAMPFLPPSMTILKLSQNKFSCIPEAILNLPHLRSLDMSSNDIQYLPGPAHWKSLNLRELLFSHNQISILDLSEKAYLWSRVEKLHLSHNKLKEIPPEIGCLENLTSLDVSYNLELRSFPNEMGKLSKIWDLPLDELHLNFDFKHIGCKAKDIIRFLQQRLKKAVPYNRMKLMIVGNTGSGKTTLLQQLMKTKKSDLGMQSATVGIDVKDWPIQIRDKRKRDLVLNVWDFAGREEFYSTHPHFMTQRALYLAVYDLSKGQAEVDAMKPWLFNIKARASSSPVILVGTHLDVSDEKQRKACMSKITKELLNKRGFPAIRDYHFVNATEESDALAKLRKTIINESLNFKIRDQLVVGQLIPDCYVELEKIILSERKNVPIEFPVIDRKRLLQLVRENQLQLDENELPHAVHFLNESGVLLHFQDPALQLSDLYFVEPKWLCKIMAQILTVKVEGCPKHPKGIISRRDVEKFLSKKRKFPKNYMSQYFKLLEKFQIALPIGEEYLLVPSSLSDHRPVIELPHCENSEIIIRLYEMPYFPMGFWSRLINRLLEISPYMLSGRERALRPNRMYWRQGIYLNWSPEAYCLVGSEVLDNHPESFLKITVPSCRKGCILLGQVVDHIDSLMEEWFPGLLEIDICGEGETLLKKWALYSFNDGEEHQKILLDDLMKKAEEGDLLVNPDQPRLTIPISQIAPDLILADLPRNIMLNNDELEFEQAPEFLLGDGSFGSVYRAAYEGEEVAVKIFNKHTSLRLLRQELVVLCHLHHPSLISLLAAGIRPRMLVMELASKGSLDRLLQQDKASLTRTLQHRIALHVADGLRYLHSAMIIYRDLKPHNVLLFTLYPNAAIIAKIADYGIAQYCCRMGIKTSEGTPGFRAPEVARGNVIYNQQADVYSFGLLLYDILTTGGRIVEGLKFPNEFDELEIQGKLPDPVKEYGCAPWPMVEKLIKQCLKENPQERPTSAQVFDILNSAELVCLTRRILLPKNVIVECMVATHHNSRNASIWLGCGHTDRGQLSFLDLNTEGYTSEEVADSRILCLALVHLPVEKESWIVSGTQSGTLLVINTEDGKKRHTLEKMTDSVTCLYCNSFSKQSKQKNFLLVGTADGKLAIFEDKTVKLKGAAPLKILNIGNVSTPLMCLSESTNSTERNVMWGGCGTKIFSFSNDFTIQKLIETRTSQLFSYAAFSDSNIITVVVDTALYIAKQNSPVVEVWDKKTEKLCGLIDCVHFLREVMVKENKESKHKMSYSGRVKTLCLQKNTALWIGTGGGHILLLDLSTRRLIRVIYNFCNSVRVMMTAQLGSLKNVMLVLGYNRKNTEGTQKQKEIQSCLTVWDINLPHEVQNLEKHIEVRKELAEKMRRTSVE
Method in brief: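 Kinase activity measured by TR-FRET: GST-tagged truncated LRRK2 (4 μg/mL working solution) reacted with fluorescein-labeled LRRKtide (ERM-based peptide) across a compound dose response for 2 h at room temperature. Reaction stopped with EDTA-containing detection buffer (20 mM Tris pH 7.6) holding 2 nM terbium anti-phospho-ERM antibody.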

[2] = test system: kinase selectivity mini-panel; assay: Kinase selectivity (mini-panel), further assay run, Table 5A; type: biochemical; details: 1 mM ATP, 1 μM drug concentration
Procedure: The compounds were run using a commercially available kinase selectivity assay which is available from CarnaBio USA, Inc. 209 West Central St., Suite 307, Natick, Mass. 01760 USA. The compounds of Examples 3, 4, 5 and 22 were run in the assay at a concentration of 1 μM using an ATP concentration of 1 mM.

mutant G2019S LRRK2 = mutant G2019S LRRK2 (Homo sapiens, UniProt Q5S007, G2019S); assay: LRRK2 Assay, Format 1 (Lantha Screen), G2019S mutant
Sequence of mutant G2019S LRRK2 (Q5S007 970-2527 G2019S limits assumed): as the sequence (Q5S007 970-2527 limits assumed) above, with G1050S counted along it
Procedure: LRRK2 kinase activity was measured using Lantha Screen technology from Invitrogen. GST-tagged truncated LRRK2 from Invitrogen (Cat # PV4874) was incubated with a fluorescein-labeled peptide substrate based upon ezrin/radixin/moesin (ERM), also known as LRRKtide (Invitrogen cat # PR8976A), in the presence of a dose response of compound. Upon completion, the assay was stopped and detected with a terbium labeled anti-phospho-ERM antibody (Invitrogen, cat # PR8975A). […] Aliquots (3.5 μL) of the 100% DMSO dose response were mixed with 46.5 μL water then 1 μL of this mixture was added to the 3 μL substrate mix in the 384-well plate. The kinase reaction was started with 3 μL of a working solution of LRRK2 enzyme at a concentration of 4 μg/mL. […] The reaction was allowed to progress at room temperature for two hours and then stopped with the addition of 7 μL of detection buffer (20 mM Tris pH 7.6, 0.01% NP-40, 0.02% NaN3, 6 mM EDTA with 2 nM terbium labeled anti-phospho-ERM).
All final concentrations of substrate ATP and enzyme were the same.

With `Cc1cc(Cc2nc3cnc4ccc(Cl)cc4c3n2[C@@H]2CCO[C@H](C)C2)no1` [Example 4, 8-Chloro-2-[(5-methyl-1,2-oxazol-3-yl)methyl]-1-[(2R,4R)-2-methyltetrahydro-2H-pyran-4-yl]-1H-imidazo[4,5-c]quinoline] the IC50 [1] was 8.3 nM, the “percent inhibition of ABL” value ([2]; kinase ABL) was −2.51% and the “percent inhibition of AKT” value ([2]; kinase AKT) was 1.03%. The “percent inhibition of AURA” value ([2]; kinase AURA) was 7.17%, the “percent inhibition of BTK” value ([2]; kinase BTK) was 0.22% and the “percent inhibition of CDK2_CyclinA” value ([2]; kinase CDK2_CyclinA) was 8.08%. The “percent inhibition of CHK1” value ([2]; kinase CHK1) was 8.15%, the “percent inhibition of CHK2” value ([2]; kinase CHK2) was 2.72% and the “percent inhibition of CKIIa′” value ([2]; kinase CKIIa′) was 4.36%. For the same molecule, the “percent inhibition of CKIa” value ([2]; kinase CKIa) was 18.22%, the “percent inhibition of CaMKIIa” value ([2]; kinase CaMKIIa) was 7.62% and the “percent inhibition of EGFR” value ([2]; kinase EGFR) was 3.07%. For the same molecule, the “percent inhibition of ERK2” value ([2]; kinase ERK2) was 4.54%, the “percent inhibition of EphA2” value ([2]; kinase EphA2) was 0.85% and the “percent inhibition of FGFR1” value ([2]; kinase FGFR1) was 20.35%. The “percent inhibition of GSK3b” value ([2]; kinase GSK3b) was 4.45%, the “percent inhibition of HGFR” value ([2]; kinase HGFR) was −5.99% and the “percent inhibition of IRAK4” value ([2]; kinase IRAK4) was 3.88%. The “percent inhibition of IRK” value ([2]; kinase IRK) was 2.83%, the “percent inhibition of JAK3” value ([2]; kinase JAK3) was −1.51% and the “percent inhibition of KDR (VEGF)” value ([2]; kinase KDR (VEGF)) was 14.24%. For the same molecule, the “percent inhibition of LCK” value ([2]; kinase LCK) was 15.63%, the “percent inhibition of MARK1” value ([2]; kinase MARK1) was 1.48% and the “percent inhibition of MK2” value ([2]; kinase MK2) was 3.04%. For the same molecule, the “percent inhibition of MLCK_sk” value ([2]; kinase MLCK_sk) was 3.07%, the “percent inhibition of MST2” value ([2]; kinase MST2) was 16.25% and the “percent inhibition of MST4” value ([2]; kinase MST4) was 1.29%. For the same molecule, the “percent inhibition of PAK4” value ([2]; kinase PAK4) was 3.85%, the “percent inhibition of PDK1” value ([2]; kinase PDK1) was 4.87% and the “percent inhibition of PIM2” value ([2]; kinase PIM2) was −0.54%. For the same molecule, the “percent inhibition of PKACa” value ([2]; kinase PKACa) was −0.89%, the “percent inhibition of PRKCB2” value ([2]; kinase PRKCB2) was 4.71% and the “percent inhibition of ROCKI” value ([2]; kinase ROCKI) was 1.89%. For the same molecule, the “percent inhibition of SGK” value ([2]; kinase SGK) was 1.58%, the “percent inhibition of SRC” value ([2]; kinase SRC) was 4.66% and the “percent inhibition of TAO2” value ([2]; kinase TAO2) was 0.82%. The “percent inhibition of TIE2” value ([2]; kinase TIE2) was 4.72%, the “percent inhibition of TRKA” value ([2]; kinase TRKA) was 11.84% and the “percent inhibition of ZC1 (HGK)” value ([2]; kinase ZC1 (HGK)) was −3.58%. For the same molecule, the “percent inhibition of p38” value ([2]; kinase p38) was 9.62% and the IC50 (mutant G2019S LRRK2) was 4.9 nM.
